# Experimental data published in US9676789B2, “Aminated derivative of homoharringtonine, preparation method therefor, and application thereof” (HANGZHOU BENSHENG PHARMACEUTICAL CO., LTD., priority 2011, dated 2017).
# Columns and labels:
# [1] = tested on: H9 (acute lymphoblastic leukemia, ALL); assay: MTT leukemia cell growth inhibition, 72 h; type: cell-based, human; conditions: Homo sapiens, H9, 72 h; for IC50: read-out: IC50; for IC90: read-out: IC90
# From the text: (§1) Leukemia cell lines: K562/adr (drug-resistant, chronic myeloid leukemia, CML), NB4 (acute promyelocytic leukemia, AML), Kasumi-1 (acute myeloid leukemia M2 type, AML-M2), Jurkat (acute lymphoblastic leukemia, ALL), all of which are donated by Cancer Research Institute of Zhejiang University, China; and H9 (acute lymphoblastic leukemia, ALL), which is purchased from China Center for Type Culture Collection.
# (§2) Obtaining 6000 well-growing leukemia cells and inoculating them into wells of a 96-well cell culture plate. The culture medium is the 1640 cell culture medium containing 10% fetal bovine serum. After adding the homoharringtonine derivatives of different concentrations and mixing uniformly, placing the plate in a carbon dioxide cell incubator (5% CO2) at 37° C. and incubating for 72 hours. Then the viable cell concentration is determined by the MTT method. In this experiment, the cell viability in control group (not treated with any compound) is set as 100%.
# [2] = tested on: Jurkat (acute lymphoblastic leukemia, ALL); assay: MTT leukemia cell growth inhibition, 72 h; type: cell-based, human; conditions: Homo sapiens; for IC50: read-out: IC50; for IC90: read-out: IC90
# From the text: as §1, §2
# [3] = tested on: K562/adr (drug-resistant, chronic myeloid leukemia, CML); assay: MTT leukemia cell growth inhibition, 72 h; type: cell-based, human; conditions: Homo sapiens, K562/Adr; for IC50: read-out: IC50; for IC90: read-out: IC90
# From the text: as §1, §2
# [4] = tested on: Kasumi-1 (acute myeloid leukemia M2 type, AML-M2); assay: MTT leukemia cell growth inhibition, 72 h; type: cell-based, human; conditions: Homo sapiens, Kasumi-1, 72 h; for IC50: read-out: IC50; for IC90: read-out: IC90
# From the text: as §1, §2
# [5] = tested on: NB4 (acute promyelocytic leukemia, AML); assay: MTT leukemia cell growth inhibition, 72 h; type: cell-based, human; conditions: Homo sapiens, NB4, 72 h; for IC50: read-out: IC50; for IC90: read-out: IC90
# From the text: as §1, §2
# [6] = tested on: RPMI8226 (multiple myeloma); assay: MTT multiple myeloma cell growth inhibition, 72 h; type: cell-based, human; conditions: Homo sapiens, RPMI-8226, RPMI8226, 72 h; for IC50: read-out: IC50; for IC90: read-out: IC90
# Protocol: Multiple myeloma and lymphoma cell lines: RPMI8226 (multiple myeloma), purchased from Fuxiang Bio-tech Co. Ltd., Shanghai, China.
# as §2, with “method.” for “method. In this experiment, the cell viability in control group (not treated with any compound) is set as 100%.”
# A549 (human lung cancer) = assay: MTT solid tumor cell growth inhibition, 72 h; type: cell-based; conditions: Homo sapiens, A549, 72 h; for IC50: read-out: IC50; for IC90: read-out: IC90
# Protocol: (§3) Human solid tumor cell lines: Hep-2 ([…]), A549 (human lung cancer), CaES-17 (esophageal cancer cell), PC-3 (prostate cancer), CNE (nasopharyngeal carcinoma cell), and SK-OV-3 (ovarian cancer cell), all of which are purchased from China Center For Type Culture Collection; RKO (human colon adenocarcinoma cell), MGC 803 (human gastric cancer cell), MG63 (osteosarcoma) and U87 MG (malignant glioma cell), all of which are purchased from Fuxiang Bio-tech Co. Ltd., Shanghai, China; PANC-1 (pancreatic cancer), Huh7 (human liver cancer cell), Becap37 (human breast cancer cell), and Hela (human cervical cancer cell), all of which are donated by Cancer Research Institute of Zhejiang University, China.
# (§4) Obtaining 4000 well-growing human solid tumor cells and inoculating them into wells of a 96-well cell culture plate. The culture medium is DMEM High Glucose cell culture medium containing 10% fetal bovine serum. The plate is placed in a carbon dioxide cell incubator (5% CO2) at 37° C. and incubating for 24 hours. After adding the homoharringtonine derivatives of different concentration and mixing uniformly, the plate is placed in a carbon dioxide cell incubator (5% CO2) at 37° C. and incubating for 72 hours. Then the viable cell concentration is determined by the MTT method and the cell viability (%) after drug treatment is calculated. In this experiment, the cell viability of control group (not treated with any compound) is set as 100%.
# [7] = tested on: Becap37 (human breast cancer cell); assay: MTT solid tumor cell growth inhibition, 72 h; type: cell-based; conditions: Homo sapiens, Becap37, 72 h; for IC50: read-out: IC50; for IC90: read-out: IC90
# Protocol: as §3, §4
# [8] = tested on: Huh7 (human liver cancer cell); assay: MTT solid tumor cell growth inhibition, 72 h; type: cell-based; conditions: Homo sapiens, Huh-7, Huh7, 72 h; for IC50: read-out: IC50; for IC90: read-out: IC90
# Protocol: as §3, §4
# [9] = tested on: RKO (human colon adenocarcinoma cell); assay: MTT solid tumor cell growth inhibition, 72 h; type: cell-based; conditions: Homo sapiens; for IC50: read-out: IC50; for IC90: read-out: IC90
# Protocol: as §3, §4
# MG63 (osteosarcoma) = assay: MTT solid tumor cell growth inhibition, 72 h; type: cell-based, human; conditions: Homo sapiens, MG 63, 72 h; for IC50: read-out: IC50; for IC90: read-out: IC90
# Protocol: as §3, §4
# [10] = tested on: PANC-1 (pancreatic cancer); assay: MTT solid tumor cell growth inhibition, 72 h; type: cell-based, human; conditions: Homo sapiens, PANC-1, 72 h; for IC50: read-out: IC50; for IC90: read-out: IC90
# Protocol: as §3, §4
# [11] = tested on: MGC 803 (human gastric cancer cell); assay: MTT solid tumor cell growth inhibition, 72 h; type: cell-based; conditions: Homo sapiens, MGC 803, 72 h; for IC50: read-out: IC50; for IC90: read-out: IC90
# Protocol: as §3, §4
# [12] = tested on: U87 MG (malignant glioma cell); assay: MTT solid tumor cell growth inhibition, 72 h; type: cell-based, human; conditions: Homo sapiens, U-87 MG
# Protocol: as §3, §4
Structure (SMILES),IC50 [1] [µg/mL],IC90 [1] [µg/mL],IC50 [2] [µg/mL],IC90 [2] [µg/mL],IC50 [3] [µg/mL],IC90 [3] [µg/mL],IC50 [4] [µg/mL],IC90 [4] [µg/mL],IC50 [5] [µg/mL],IC90 [5] [µg/mL],IC50 [6] [µg/mL],IC90 [6] [µg/mL],IC50 (A549 (human lung cancer)) [µg/mL],IC90 (A549 (human lung cancer)) [µg/mL],IC50 [7] [µg/mL],IC90 [7] [µg/mL],IC50 [8] [µg/mL],IC90 [8] [µg/mL],IC50 [9] [µg/mL],IC90 [9] [µg/mL],further results
COC1=C[C@]23CCCN2CCc2cc4c(cc2[C@@H]3[C@@H]1OC(=O)[C@@](O)(CCCC(C)(C)O)CC(=O)N1CCN(C)CC1)OCO4 [BS-HH-009],8,> 16,3,> 16,> 16,> 16,8.54,> 16,2.97,11.2,3.6,16,10.2,> 16,3.09,> 16,6.7,> 16,1.46,5.72,IC50 (MG63 (osteosarcoma)): 1.72 µg/mL; IC90 (MG63 (osteosarcoma)): > 16 µg/mL; IC50 [10]: 16 µg/mL; IC90 [10]: > 16 µg/mL
COC1=C[C@]23CCCN2CCc2cc4c(cc2[C@@H]3[C@@H]1OC(=O)[C@@](O)(CCCC(C)(C)O)CC(=O)N1CCOCC1)OCO4 [BS-HH-011],> 16,> 16,6.7,> 16,> 16,> 16,8.28,> 16,3.22,9.54,6.71,> 16,> 16,> 16,11.3,> 16,16,> 16,4,> 16,IC50 (MG63 (osteosarcoma)): 6.33 µg/mL; IC90 (MG63 (osteosarcoma)): > 16 µg/mL; IC50 [10]: > 16 µg/mL; IC90 [10]: > 16 µg/mL
COC1=C[C@]23CCCN2CCc2cc4c(cc2[C@@H]3[C@@H]1OC(=O)[C@@](O)(CCCC(C)(C)O)CC(=O)N1CCSCC1)OCO4 [BS-HH-014],8.25,> 16,2,> 16,> 16,> 16,1.33,8.61,1.29,3.7,2.43,16,9.79,> 16,6.89,> 16,4,> 16,1.25,5.36,IC50 [11]: 2.92 µg/mL; IC90 [11]: 15.5 µg/mL; IC50 (MG63 (osteosarcoma)): 6.24 µg/mL; IC90 (MG63 (osteosarcoma)): > 16 µg/mL; IC50 [10]: 8 µg/mL; IC90 [10]: > 16 µg/mL
COC1=C[C@]23CCCN2CCc2cc4c(cc2[C@@H]3[C@@H]1OC(=O)[C@@](O)(CCCC(C)(C)O)CC(=O)N1CC=CC1)OCO4 [BS-HH-018],2.69,> 16,0.88,16,7.77,> 16,0.47,2.32,0.38,1,0.6,5.66,4.09,> 16,1.7,> 16,2.5,> 16,0.34,1.5,IC50 [11]: 0.94 µg/mL; IC90 [11]: 4.96 µg/mL; IC50 (MG63 (osteosarcoma)): 0.96 µg/mL; IC90 (MG63 (osteosarcoma)): > 16 µg/mL; IC50 [10]: 2.89 µg/mL; IC90 [10]: > 16 µg/mL
COC1=C[C@]23CCCN2CCc2cc4c(cc2[C@@H]3[C@@H]1OC(=O)[C@@](O)(CCCC(C)(C)O)CC(=O)N1CCN(CCO)CC1)OCO4 [BS-HH-020],> 16,> 16,15.1,> 16,> 16,> 16,> 16,> 16,7.46,15.8,16,> 16,> 16,> 16,> 16,> 16,> 16,> 16,8.38,> 16,IC50 [11]: 7.5 µg/mL; IC90 [11]: > 16 µg/mL; IC50 (MG63 (osteosarcoma)): 14.1 µg/mL; IC90 (MG63 (osteosarcoma)): > 16 µg/mL; IC50 [10]: > 16 µg/mL; IC90 [10]: > 16 µg/mL
COC1=C[C@]23CCCN2CCc2cc4c(cc2[C@@H]3[C@@H]1OC(=O)[C@@](O)(CCCC(C)(C)O)CC(=O)N1CCC(O)CC1)OCO4 [BS-HH-021],> 16,> 16,13.4,> 16,> 16,> 16,14.6,> 16,8,16,16,> 16,> 16,> 16,> 16,> 16,> 16,> 16,8.51,> 16,IC50 [11]: > 16 µg/mL; IC90 [11]: > 16 µg/mL; IC50 (MG63 (osteosarcoma)): > 16 µg/mL; IC90 (MG63 (osteosarcoma)): > 16 µg/mL; IC50 [10]: > 16 µg/mL; IC90 [10]: > 16 µg/mL
COC1=C[C@]23CCCN2CCc2cc4c(cc2[C@@H]3[C@@H]1OC(=O)[C@@](O)(CCCC(C)(C)O)CC(=O)N1CCCC(O)C1)OCO4 (some centres unmarked) [BS-HH-025],> 16,> 16,> 16,> 16,> 16,> 16,> 16,> 16,8.31,> 16,> 16,> 16,> 16,> 16,> 16,> 16,> 16,> 16,15.3,> 16,IC50 [11]: > 16 µg/mL; IC90 [11]: > 16 µg/mL; IC50 (MG63 (osteosarcoma)): > 16 µg/mL; IC90 (MG63 (osteosarcoma)): > 16 µg/mL; IC50 [10]: > 16 µg/mL; IC90 [10]: > 16 µg/mL
COC1=C[C@]23CCCN2CCc2cc4c(cc2[C@@H]3[C@@H]1OC(=O)[C@@](O)(CCCC(C)(C)O)CC(=O)NCc1cccs1)OCO4 [BS-HH-055],4,10.6,1.58,8,6.24,16,1.3,6.68,2.38,7.61,2.1,16,11.2,> 16,5.9,> 16,4.83,> 16,2.75,6.97,IC50 [11]: 6.06 µg/mL; IC90 [11]: 19 µg/mL; IC50 (MG63 (osteosarcoma)): 3.83 µg/mL; IC90 (MG63 (osteosarcoma)): 16 µg/mL; IC50 [10]: 8 µg/mL; IC90 [10]: > 16 µg/mL; IC50 ([12]; read-out: IC50): 6.54 µg/mL; IC90 ([12]; read-out: IC90): > 16 µg/mL
